Source: publication PMC10146281, “Pharmacokinetic and Pharmacodynamic Characteristics of Pelubiprofen Tromethamine vs. Pelubiprofen in Healthy Subjects” (Pharmaceutics, 2023)

Key:
[1] = Study I (DW1809-102): pharmacokinetic analysis of plasma pelubiprofen (LC-MS/MS) after single oral dose; conditions: for Tmax: N = 35, median (minimum–maximum)
Protocol: In this study, the two independent clinical trials (Study I and II) were conducted using an identical randomized, open-label, oral, single-dose, fasted, two-sequence, four-period, crossover design. Due to the known pharmacokinetic characteristics of pelubiprofen with its large intra-subject variability, the replicated design was chosen to calculate the true intra-coefficient of variation in both studies. Study I tested 25 mg of pelubiprofen tromethamine (36.73 mg of pelubiprofen tromethamine salt; 25 mg of pelubiprofen, Daewon Pharmaceutical Co., Ltd., Seoul, Republic of Korea) against 30 mg of pelubiprofen (30.0 mg of pelubiprofen, Daewon Pharmaceutical Co., Ltd., Seoul, Republic of Korea) as the reference. Study II tested 30 mg of pelubiprofen tromethamine (44.07 mg of pelubiprofen tromethamine salt; 30 mg of pelubiprofen, Daewon Pharmaceutical Co., Ltd., Seoul, Republic of Korea) against 30 mg of pelubiprofen (30.0 mg of pelubiprofen, Daewon Pharmaceutical Co., Ltd., Seoul, Republic of Korea) as the reference. The target number of subjects in both Study I and II was set to N = 36 (N = 18 for each sequence group) (Figure 1, Table 1).
The subject screening in both Study I and Study II was performed in the four weeks ([…]) prior to the first administration (Day 1). […] In addition, the screened subjects fasted for at least 10 h, excluding drinking water, from approximately 10 p.m. until administration of the investigational drug. The randomization in both Study I and II led the subjects to receive oral administration of a single test or reference tablet with approximately 150 mL of water at each time point from approximately 8 a.m. at approximately 2 min intervals according to their numbers. The subjects in both Study I and II were prohibited from drinking water for an hour before and after the administration, except during drug administration. The post-administration blood sampling and tests were performed as scheduled. All subjects were provided with identical meals approximately 4 h after blood sampling. The subjects in both Study I and II received the blood sampling and tests for the pharmacokinetic (PK) evaluation approximately 8 h after administration. Then, they were discharged following the completion of the first period of the study.
To analyze the PK characteristics in both Study I and II, approximately 5 mL of blood was sampled before administration (0 h) and at the following time points after administration; 0.083 h (5 min), 0.167 h (10 min), 0.33 h (20 min), and 0.5, 0.75, 1, 1.5, 2, 2.5, 3, 3.5, 4, 6, and 8 h. Therefore, for each subject, the blood sampling was performed 15 times in each period, resulting in a total of 60 times. All four periods proceeded on the same schedule as the first period in both Study I and II. The wash-out period between each consecutive period was set to a minimum of four days. The subjects in both Study I and II, after completing all four periods, chose a day from Day 5 to Day 7 of the final administration in the four period for visiting the center to undergo post study visit.
The validation of the quantitative analysis of plasma pelubiprofen in this study was performed in accordance with the following guidelines: the Validation Protocol for Pelubiprofen Quantification, the domestic Standard Operating Procedure (SOP) for Bioanalyses, the Guideline of Bioanalytical Method Validation (MFDS, December 2013), and Bioanalytical Method Validation Guidance for Industry (USA FDA, 2018). The plasma pelubiprofen was pretreated using protein precipitation in a dark room at room temperature (15–25 °C) and under shielded light for the subsequent liquid chromatograph tandem mass spectrometry (LC-MS/MS) analysis. The tested items in the validation included the intra-batch and inter-batch accuracy, precision, selectivity, linearity, and stability.

[2] = Study II safety and tolerability evaluation (adverse events); assay type: in vivo, human; conditions: treatment of test (30 mg pelubiprofen tromethamine), 36 subjects evaluated, mild, 'not related'
Protocol: In both Study I and II, the safety evaluation was performed on subjects administered with the investigational drug at least once. Any clinically significant findings in the interview, physical examination, vital signs, 12-lead electrocardiogram (ECG), the clinical laboratory test, etc., during the study period were collected as adverse events, which were subsequently evaluated for the incidence of serious adverse events, severity, causal relationship, etc. All relevant data were collected through monitoring by the investigator and voluntary reporting by the subjects. To collect additional data, interview and physical examination were performed where necessary. The investigator carried out the follow-up monitoring of the subjects with adverse events until the symptoms subsided and abnormal test values returned to a healthy baseline or until a satisfactory explanation for the observed change could be provided.

[3] = set-up: method as in PMID 34070062; conditions: non-clinical studies; cited from earlier work
[4] = set-up: method as in earlier work; conditions: cited from earlier work
[5] = Study I, healthy subjects, single oral 25 mg pelubiprofen tromethamine, fasted, N = 35, mean ± SD

Compound: CC(C(=O)O)c1ccc(/C=C2\CCCCC2=O)cc1 (stereo not shown) [Pelubiprofen Tromethamine, pelubiprofen tromethamine]
- time after oral administration at which plasma concentration of pelubiprofen returned to baseline ([1]; Study I, 25 mg pelubiprofen tromethamine dose group): approximately 4 h
- bioequivalence evaluation of Cmax and AUC0-t vs. 30 mg pelubiprofen ([1]; Study I, 25 mg pelubiprofen tromethamine, criteria 90% CI log 0.70–log 1.43 (Cmax), log 0.8–log 1.25 (AUC0-t)): satisfied the bioequivalence study criteria
- AUC0-inf [1, 5]: 372.12 ± 92.16 ng·h/mL
- AUC0-t [1, 5]: 370.76 ± 91.86 ng·h/mL
- CL/F [1, 5]: 71.78 ± 19.79 L/h
- Cmax [1, 5]: 645.80 ± 237.73 ng/mL
- Vd/F [1, 5]: 87.43 ± 40.63 L
- t1/2 [1, 5]: 52.2 ± 23.4 min
- Tmax ([1]; Study I, healthy subjects, single oral 25 mg pelubiprofen tromethamine, fasted): 0.33 (0.17–1.50) h
- Tmax ([1]; Study I, healthy subjects, single oral 25 mg pelubiprofen tromethamine, fasted, listed as pelubiprofen tromethamine): approximately 0.33 h
- adverse events [2]: one case of adverse events
- solubility and absorption compared to pelubiprofen [3]: enhanced solubility and absorption

Compound: CC(C(=O)O)c1ccc(/C=C2\CCCCC2=O)cc1 (stereo not shown) [Pelubiprofen, 2-[4-(oxocyclohexylidenemethyl)-phenyl] propionic acid]
- CL/F ([1]; Study I, healthy subjects, single oral 30 mg pelubiprofen (reference), fasted, N = 35, mean ± SD): 92.12 ± 28.68 L/h
- Tmax ([1]; Study I, healthy subjects, single oral 30 mg pelubiprofen (reference), fasted): 0.33 (0.17–3.50) h
- highest within-subject variability for Cmax ([1]; Study I, reference 30 mg pelubiprofen, four-period repeated crossover): approximately 58%
- AUC0-inf ([1]; human, plasma, po, 30 mg): 355 ± 103 ng·h/mL
- AUC0-t ([1]; human, plasma, po, 30 mg): 352 ± 103 ng·h/mL
- Cmax ([1]; human, plasma, po, 30 mg): 619 ± 368 ng/mL
- Vd/F ([1]; human, plasma, po, 30 mg): 125 ± 58.8 L
- half-life ([1]; human, plasma, po, 30 mg): 59.4 ± 32.4 min
- Tmax ([1]; human, plasma, po, 30 mg, Tmax, Study I, healthy subjects, single oral 30 mg pelubiprofen (reference), fasted): ~19.8 min
- protein binding rate [4]: high protein binding rate
